Assay results published in patent publication US11970512B2, “Amphotericin B derivatives with improved therapeutic index” (The Board of Trustees of the University of Illinois, priority 2013, dated 2024).
≈ marks a conversion by molar mass, not a printed value. Where two headings read alike, the source gives them in different places.

Tests used:
[1] = Acute toxicity, single intravenous administration to healthy mice, lethality; assay type: in vivo
Protocol: FIG. 40 is a graph depicting lethality in healthy mice of single intravenous administration in the doses indicated of AmB, AmBMU, or AmBAU.
In a separate set of experiments, acute toxicity was evaluated by single intravenous administration of 1, 2, 4, 8, 16, 32, or 64 mg/kg AmB or its derivatives to healthy mice, followed by monitoring for lethality. […] AmBAU was drastically less toxic with >50% lethality not being reached until the 64 mg/kg dosage group.

[2] = tested on: Candida albicans; experiment: Broth microdilution assay (MIC) against C. albicans; assay type: cell-based; conditions: read-out: MIC (μM) against C. albicans
Protocol: Urea derivatives 2-4 maintain potent antifungal activity ranging from 0.125 μM to 3 μM against S. cerevisiae. […] AmBCU required 324 μM to cause 90% hemolysis in red blood cells, more than 30× required by AmB. Encouraged by this initial therapeutic index screen the urea series was further tested against the clinically relevant fungal cell line Candida albicans. C. albicans is the most common human fungal infection. AmB inhibits yeast grown of C. albicans at 0.25 μM. Similar to the trend seen with S. cerevisiae, the potency of urea derivatives […] increased with increasing amount of cationic character. AmBAU, AmBMU, and AmBCU require 0.25, 0.5, and 1 μM respectively (Table 2).
(§1) Each derivative proposed herein is tested for biological activity against both yeast and human cells to determine its therapeutic index. A broth microdilution experiment determines the MIC (minimum inhibitory concentration) of each derivative against S. cerevisiae and the clinically relevant C. albicans, thereby establishing the antifungal activity of each novel derivative. To test for toxicity against human cells, each compound is exposed to a hemolysis assay against red blood cells which determines the concentration required to cause 90% lysis of human red blood cells (EH90). Additionally, each compound is exposed to human primary renal tubule cells to determine the toxicity of each compound against kidney cells. These assays when compared against the known values of AmB against the same cell lines determine the improvement in therapeutic index of each compound.

[3] = tested on: Saccharomyces cerevisiae; experiment: Broth microdilution assay (MIC) against Saccharomyces cerevisiae; assay type: cell-based; conditions: read-out: MIC (μM) S.cerevisiae
Protocol: (§2) With efficient access to this novel AmB chemotype, ureas 2-4 were compared to AmB and a range of previously reported AmB derivatives in an in vitro antifungal and human cell toxicity screen. Yeast toxicity was measured with broth microdilution assays (MIC) against Saccharomyces cerevisiae. Human cell toxicity was studied by determining the amount of compound required to cause 90% hemolysis of human erythrocytes (EH90). […] Methyl esterification (AmBME) retains antifungal activity at 0.25 μM against S. cerevisiae, while decreasing hemolysis concentration to one third that seen with AmB. […] Hemolysis activity remained similar to AmBME and C41MeAmB. Bis-amino alkylated amide derivative AmBNR2 was previously shown to moderately improve the therapeutic index.^[19]
as §1

[4] = tested on: human erythrocytes; assay type: cell-based; conditions: for EH90 as multiple of that observed with AmB: human
Protocol: as §2, §1

[5] = tested on: C. albicans; experiment: Mouse model of disseminated candidiasis, kidney fungal burden; assay type: in vivo; conditions: neutropenic mice; for reduction of kidney fungal burden relative to AmB: single intraperitoneal 16 mg/kg dose, 24 hours post inoculation; for reducing the fungal burden present in the kidneys, compared with AmB (in words): single intraperitoneal dose, all three tested doses (1, 4, and 16 mg/kg)
Protocol: FIG. 39 is a group of three graphs depicting kidney fungal load (colony forming units, cfu) in neutropenic mice inoculated intravenously with C. albicans and then treated two hours later with a single intraperitoneal dose of vehicle control, AmB, AmBMU, or AmBAU. FIG. 39A, 1 mg/kg AmB, AmBMU, or AmBAU. FIG. 39B, 4 mg/kg AmB, AmBMU, or AmBAU. FIG. 39C, 16 mg/kg AmB, AmBMU, or AmBAU.
The antifungal efficacies of AmBMU and AmBAU were tested in a mouse model of disseminated candidiasis. In this experiment neutropenic mice were infected with C. albicans via the tail vein, and then 2 hours post infection the mice were treated with a single intraperitoneal injection of AmB, AmBMU, or AmBAU. Then 2, 6, 12, and 24 hours post infection the mice were sacrificed, and the fungal burden present in their kidneys was quantified. […] The differences were most pronounced at the 16 mg/kg dose at 24 hours post inoculation. Relative to AmB, AmBMU reduced the fungal burden by 1.2 log units (p≤0.001), and AmBAU reduced the fungal burden by nearly 3 log units (p≤0.0001).

[6] = tested on: yeast; conditions: in vitro studies; cited from earlier work
[7] = Candida albicans, broth microdilution
[8] = Saccharomyces cerevisiae, broth microdilution

C[C@@H]1[C@H](O)[C@@H](C)/C=C/C=C/C=C/C=C/C=C/C=C/C=C/[C@H](O[C@@H]2O[C@H](C)[C@@H](O)[C@H](N)[C@@H]2O)C[C@@H]2O[C@](O)(C[C@@H](O)C[C@@H](O)[C@H](O)CC[C@@H](O)C[C@@H](O)CC(=O)O[C@H]1C)C[C@H](O)[C@H]2C(=O)O [AmB, amphotericin B]
lethality ([1]; single intravenous 4 mg/kg): All mice in the 4 mg/kg AmB dosage group died within seconds | MIC ([2]; broth microdilution): 0.25 µM (≈ 0.231 µg/mL) | MIC ([3]; broth microdilution): 0.5 µM (≈ 0.462 µg/mL)

CC1OC(O[C@H]2/C=C/C=C/C=C/C=C/C=C/C=C/C=C/[C@H](C)[C@@H](O)[C@@H](C)[C@H](C)OC(=O)C[C@H](O)C[C@H](O)CC[C@@H](O)[C@H](O)C[C@H](O)C[C@]3(O)C[C@H](O)[C@@H](NC(=O)NCCN)C(C2)O3)C(O)C(N)C1O (stereo partly drawn) [AmBAU]
dosage group at which >50% lethality was reached ([1]; single intravenous administration): 64 mg/kg | MIC ([2]; Candida albicans): 0.25 µM (≈ 0.245 µg/mL) | cell-killing activity / toxicity towards human red blood cells (in words) [4]: drastically decreased toxicity towards red blood cells | EH90 (μM) red blood cells ([4]; amount of compound required to cause 90% hemolysis of human erythrocytes): >500 µM | MIC ([3]; Saccharomyces cerevisiae): 0.125 µM (≈ 0.123 µg/mL) | reduction of kidney fungal burden relative to AmB [5]: ~3 log units | reducing the fungal burden present in the kidneys, compared with AmB (in words) [5]: substantially more effective than AmB

CC1OC(O[C@H]2/C=C/C=C/C=C/C=C/C=C/C=C/C=C/[C@H](C)[C@@H](O)[C@@H](C)[C@H](C)OC(=O)C[C@H](O)C[C@H](O)CC[C@@H](O)[C@H](O)C[C@H](O)C[C@]3(O)C[C@H](O)[C@@H](NC(=O)NCCC(=O)O)C(C2)O3)C(O)C(N)C1O (stereo partly drawn) [AmBCU]
MIC [2, 7]: 1 µM (≈ 1.01 µg/mL) | cell-killing activity / toxicity towards human red blood cells (in words) [4]: drastically decreased toxicity towards red blood cells | EH90 as multiple of that observed with AmB [4]: more than 30 × | MIC [3, 8]: 3 µM (≈ 3.03 µg/mL)

CNC(=O)[C@H]1[C@@H]2C[C@@H](O[C@@H]3O[C@H](C)[C@@H](O)[C@H](N)[C@@H]3O)/C=C/C=C/C=C/C=C/C=C/C=C/C=C/[C@H](C)[C@@H](O)[C@@H](C)[C@H](C)OC(=O)C[C@H](O)C[C@H](O)CC[C@@H](O)[C@H](O)C[C@H](O)C[C@](O)(C[C@@H]1O)O2 [AmBMA, reference compound]
EH90 (μM) red blood cells [4]: 15.32 ± 3.39 µM | MIC ([3]; broth microdilution): 0.25 µM (≈ 0.234 µg/mL)

COC(=O)[C@H]1[C@@H]2C[C@@H](O[C@@H]3O[C@H](C)[C@@H](O)[C@H](N)[C@@H]3O)/C=C/C=C/C=C/C=C/C=C/C=C/C=C/[C@H](C)[C@@H](O)[C@@H](C)[C@H](C)OC(=O)C[C@H](O)C[C@H](O)CC[C@@H](O)[C@H](O)C[C@H](O)C[C@](O)(C[C@@H]1O)O2 [AmBME, reference compound]
EH90 (μM) red blood cells [4]: 30.67 ± 5.38 µM | hemolysis concentration relative to AmB [4]: one third | MIC ([3]; broth microdilution): 0.25 µM (≈ 0.235 µg/mL)

CNC(=O)N[C@H]1C2C[C@@H](OC3OC(C)C(O)C(N)C3O)/C=C/C=C/C=C/C=C/C=C/C=C/C=C/[C@H](C)[C@@H](O)[C@@H](C)[C@H](C)OC(=O)C[C@H](O)C[C@H](O)CC[C@@H](O)[C@H](O)C[C@H](O)C[C@](O)(C[C@@H]1O)O2 (stereo partly drawn) [AmBMU]
lethality ([1]; single intravenous 64 mg/kg): survived with no observable toxicity | MIC [2, 7]: 0.5 µM (≈ 0.476 µg/mL) | cell-killing activity / toxicity towards human red blood cells (in words) [4]: drastically decreased toxicity towards red blood cells | EH90 as multiple of that observed with AmB [4]: greater than 45 × | MIC [3, 8]: 0.25 µM (≈ 0.238 µg/mL) | reduction of kidney fungal burden relative to AmB [5]: 1.2 log units | reducing the fungal burden present in the kidneys, compared with AmB (in words) [5]: substantially more effective than AmB

CC1C=CC=CC=CC=CC=CC=CC=CC(OC2CC(N)C(O)C(C)O2)CC2OC(O)(CC(O)CC(O)C(O)CCC(O)CC(O)CC(=O)OC(C)C(C)C1O)CC(O)C2C(=O)O (stereo not drawn) [C2′deOAmB]
toxicity to yeast [6]: toxic to yeast
